Patent US6586460B1, “Heteroarotinoids containing urea or thiourea linker” (The Board of Regents for Oklahoma State University, priority 2001, dated 2003)

What was measured:
[1] = tested on: C-33A; experiment: Growth inhibition assay (SRB); format: cell-based; conditions: 10 μM, three-day treatment, Table I
Description: (§1) To illustrate the general and useful biological activity of the heteroarotinoids described in this invention, selected compounds were screened for ability to inhibit the growth of three ovarian cancerous cell lines, namely Caov, SKOV, and OVCAR cell lines, three cervical cell lines (Cervix HPV-Wt p53, Cervix HPV-Mut p53, and Cervix HPV-Mut p53), and one vulvar (Vulvar HPV-Mut p53) cell line as shown in Tables I-III. The cell lines and the technology have been previously described [See Journal of Medicinal Chemistry, 1999, Vol. 42, pages 3602-3614 in an article entitled “Synthesis, Structure-Activity Relationships, and RAR γ-Ligand Interactions of Nitrogen Heteroarotinoids” by A. Dhar, S. Liu, J. Klucik, K. D. Berlin, M. M. Madler, S. Lu, R. T. Ivey, D. Zacheis, C. W. Brown, E. C. Nelson, P. J. Birckbichler, and D. M. Benbrook], but the general technique was slightly modified. Cultures of the cancerous cells were plated in volumes of 150 μL in 96-well microtiter plates at concentrations of 2000-4000 cells/well, depending upon the cell line used. Retinoids were added the next day at 4× the concentrations in 50 μL of media resulting in 1, 2, 3, 4, 5, 7, and 10 μM final concentrations of each retinoid. Control cultures were treated with the same volume of DMSO. After 3 days of treatment, the cell density in each well was determined by fixing the cells in trichloroacetic acid followed by staining the cytoplasmic proteins with sulforhoamine B (SRB). After rinsing, the SRB was solubilized in Tris-HCl, and the optical density of each culture was determined with a MR600 microtiter plate reader. Each experiment was performed in triplicate, and the three values of each treatment were averaged. The average OD of the treated cultures was divided by that of the control cultures treated with solvent alone. To determine the percent growth inhibition, this ratio was subtracted from 1 and multiplied by 100. Tables I, II, and III contain representative examples of the inhibition of growth by the inventive heteroarotinoids of the cancerous cell lines investigated at two independent concentrations (1 and 10 μM). As standards for comparison purposes, trans-retinoic acid (t-RA), 9-cis-retinoic acid (9-c-RA), 13-cis-retinoic acid (13-c-RA), and […] (4-HPR) were added in parallel experiments along with the heteroarotinoids and with dimethyl sulfoxide (DMSO) as the solvent. For convenience, the data in Tables II and III are duplicated and ranked according to tumor type.

[2] = tested on: CAOV-3; experiment: Growth inhibition assay (SRB); format: cell-based; conditions: 10 μM, three-day treatment, Table I
Description: as §1

[3] = tested on: HT-3; experiment: Growth inhibition assay (SRB); format: cell-based; conditions: 10 μM, three-day treatment, Table I
Description: as §1

[4] = tested on: SK-OV-3; experiment: Growth inhibition assay (SRB); format: cell-based; conditions: 10 μM, three-day treatment, Table I
Description: as §1

[5] = tested on: SW962; experiment: Growth inhibition assay (SRB); format: cell-based; conditions: 10 μM, three-day treatment, Table I
Description: as §1

[6] = tested on: SiHa; experiment: Growth inhibition assay (SRB); format: cell-based; conditions: 10 μM, three-day treatment, Table I
Description: as §1

[7] = tested on: OVCAR-3; experiment: Growth inhibition assay (SRB); format: cell-based, human; conditions: 10 μM, three-day treatment, Table I
Description: as §1

[8] = tested on: ovarian carcinoma cell line OVCAR-3; experiment: Apoptosis in organotypic culture, TUNNEL assay; format: cell-based, human; conditions: 1 μM; for % APOPTOSIS of OVCAR-3 cells: two weeks, organotypic culture, TUNNEL assay; for inducing apoptosis in the OVCAR-3 cell line, comparison in words: Table V
Protocol: In another experiment, the ovarian carcinoma cell line OVCAR-3 was grown in organotypic culture. After one week, the cultures were treated with 1 μM solution of heteroarotinoids 11, 12, and 13, or with the same volume of DMSO (solvent), for two weeks. Both 9-c-RA and 4-HPR were used as controls. At the end of the time, the cultures were fixed in sectioned, and stained with the TUNNEL assay to detect apoptosing cells. An experienced pathologist quantitated the percent of apoptosing cells by light microscopic examination.

[9] = tested on: OVCAR-3 cisplatin-resistant ovarian carcinoma cell line; experiment: Cisplatin chemosensitization (MTS assay); format: cell-based, human; conditions: 1 μM retinoid 3 days before and 3 days after one hour of cisplatin (40 μM or 1 μg/ml)
Protocol: The compounds of the present invention also find advantage over the standard retinoids, including retinoic acid and 4-HPR as chemosensitization agents. In another study, ovarian carcinoma cultures, including cisplatin-resistant cultures, were trypsinized and plated in microtiter plates at a concentration of 1000 cells per well. A series of natural and synthetic retinoids, including exemplar heteroarotinoids with the novel three atom linker, at a concentration of 5 μM were added to triplicate wells in the microtiter plates twenty-four hours later. The same volume of DMSO used to administer the compounds were added to the control cultures. After three days of treatment, a range of cisplatin concentrations were added to the wells. After one hours of exposure, the media and retinoid drugs were replenished. Cell survival was quantitated using the MTS assay (Promega). […] Thus, the present invention contemplates the process of sensitizing cells to cisplatin therapy and combined cisplatin and radiation therapy using the inventive heteroarotinoids.
In this regard, the cisplatin resistant OVCAR-3 cell line was pre-treated with a concentration of 1 μM of the indicated retinoids for 3 days, and then exposed to cisplatin at the concentration detected in tumors of treated patients (40 μM or 1 μg/ml). […] After one hour of cisplatin exposure, the cisplatin was removed and the cultures were grown in the presence of 1 μM of the indicated retinoids for an additional 3 days. The number of living cells present was then determined using the MTS (3-(4,5-dimethylthiazol-2-yl)-5-(3-carboxymethoxyphenyl)-2H-tetrazolium inner salt) assay (Promega). In the MTS assay, metabolically active cells reduce the MTS compound to an aqueous soluble formazan resulting in an absorbance that can be measured at 490 nm (Promega Technical Bulletin No.169). The optical density at 490 nm (OD490) of the MTS-treated cultures is then determined and used as a measure of the number of living cells in each well. The percent growth is determined by dividing the OD490 of the treated cultures by the OD490 of the untreated control cultures.

SMILES	Percentage growth inhibition, C-33A (Cervix HPV− Mut p53) [1] [%]	Percentage growth inhibition, CAOV-3 (Ovarian HPV− Mut p53) [2] [%]	Percentage growth inhibition, HT-3 (Cervix HPV− Mut p53) [3] [%]	Percentage growth inhibition, SK-OV-3 (Ovarian HPV− Null p53) [4] [%]	Percentage growth inhibition, SW962 (Vulva HPV− Mut p53) [5] [%]	Percentage growth inhibition, SiHa (Cervix HPV+ Wt p53) [6] [%]	Percentage growth inhibition, OVCAR-3 (Ovarian HPV− Mut p53) [7] [%]	% APOPTOSIS of OVCAR-3 cells [8] [%]	inducing apoptosis in the OVCAR-3 cell line, comparison in words [8]	chemosensitization to cisplatin (percent growth, FIG. 2) [9]
CCOC(=O)c1ccc(NC(=O)Nc2ccc3c(c2)C(C)(C)CC(C)(C)S3)cc1 [heteroarotinoid 13]	76	98	85	94	96	66	77	80	as effective as 4-HPR	effective
CC1(C)CC(C)(C)c2cc(NC(=S)Nc3ccc([N+](=O)[O-])cc3)ccc2S1 [heteroarotinoid 11]	87	80	82	100	98	72	94	95	as effective as 4-HPR	effective
